Source: patent US8785452B2, “Anti-infective compounds” (priority 2008, dated 2014)
Read-outs that look alike come from different tables or passages of the source.

How the values were obtained:
[1] = system: M. tuberculosis H37Rv-GFP; experiment: microbe, parasite or virus in culture; format: cell-based, Mycobacterium tuberculosis; conditions: Mycobacterium tuberculosis, H37RV, Macrophage; for inhibition at 0.2 µM: read-out: QIM Confirm % Inhibition 0.2 uM; for inhibition at 2 µM: read-out: QIM Confirm % Inhibition 2 uM
[2] = system: M. tuberculosis H37Rv-GFP; experiment: microbe, parasite or virus in culture; format: cell-based; conditions: Mycobacterium tuberculosis; for inhibition at 0.2 µM: read-out: QUM Confirm % Inhibition 0.2 uM; for inhibition at 2 µM: read-out: QUM Confirm % Inhibition 2 uM; for inhibition at 20 µM: read-out: QUM Confirm % Inhibition 20 uM
Raw264.7 cells = experiment: Cell number (CellNb) from image analysis of the phenotypic cell-based assay
[3] = confirmation, 0.2 uM, intracellular
[4] = confirmation, 2 uM, intracellular
[5] = confirmation, 20 uM, read-out: QIM Confirm % Inhibition 20 uM
[6] = primary screen, 20 μM, read-out: Primary QIM % Inhibition

Compound	inhibition at 0.2 µM [1, 3] [%]	inhibition at 2 µM [1, 4] [%]	inhibition at 20 µM [1, 5] [%]	inhibition at 20 µM [1, 6] [%]	inhibition at 0.2 µM [2] [%]	inhibition at 2 µM [2] [%]	inhibition at 20 µM [2] [%]	QIM Confirm CellNb 0.2 uM (Raw264.7 cells; confirmation, 0.2 uM)	QIM Confirm CellNb 2 uM (Raw264.7 cells; confirmation, 2 uM)	QIM Confirm CellNb 20 uM (Raw264.7 cells; confirmation, 20 uM)	Primary QIM CellNb (Raw264.7 cells; primary screen, 20 μM)	inhibition at 20 µM ([1]; read-out: Primary QIM % Inhibition) [%]	inhibition at 0.2 µM [1] [%]	inhibition at 2 µM [1] [%]	inhibition at 20 µM ([1]; read-out: QIM Confirm % Inhibition 20 uM) [%]	Primary QIM CellNb (Raw264.7 cells)	QIM Confirm CellNb 0.2 uM (Raw264.7 cells)	QIM Confirm CellNb 2 uM (Raw264.7 cells)	QIM Confirm CellNb 20 uM (Raw264.7 cells)
Cc1nn(-c2ccccc2)c(Cl)c1/C=N/NC(=O)c1ccccn1 [IPK 000 001 90]	12.7	13.2	96.5	91.9	34.6	29.4	42.3	190.0	173.6	317.6	435.5	–	–	–	–	–	–	–	–
O=C(N/N=C/c1cc(Br)c(Br)o1)c1ccncc1 [IPK 000 009 41]	19.6	92.8	99.6	92.9	28.3	59.6	99.4	257.8	488.3	446.5	345.8	–	–	–	–	–	–	–	–
O=C(/C=C/c1ccc(Cl)cc1Cl)c1ccc(Cl)cc1 [IPK 000 015 36]	15.8	-4.8	36.1	38.1	41.9	59.4	79.5	331.0	286.0	168.0	146.5	–	–	–	–	–	–	–	–
O=C(NCCOCc1ccccc1)c1cc([N+](=O)[O-])cc([N+](=O)[O-])c1 [IPK 000 027 91]	–	–	–	–	65.8	97.6	75	–	–	–	–	89	14.2	98.5	46.1	410.8	295.3	434.1	325.6
O=C(CSc1cccs1)Nc1nccs1 [IPK 000 002 87]	11.4	-1.3	66	65.9	45.9	36.1	36.4	315.9	246.1	412.9	350.3	–	–	–	–	–	–	–	–
O=C1Nc2ccccc2/C1=N/NC(=O)c1ccncc1 [IPK 000 006 35]	17.7	22.8	65.2	97.6	23.7	41.9	43.4	262.8	320.9	328.8	424.3	–	–	–	–	–	–	–	–
Clc1ccc(Nc2nc3nonc3nc2Nc2ccc(Cl)cc2)cc1 [IPK 000 003 90]	2.2	43.2	67.9	15.7	44	68.8	72.7	142.3	75.6	133.4	78.0	–	–	–	–	–	–	–	–
O=C(N/N=C\c1ccc(Cl)s1)c1ccncc1 [IPK 000 009 42]	21.3	92.3	97.9	93.1	28.8	50.3	100	326.3	473.5	255.0	376.5	–	–	–	–	–	–	–	–
O=C(N/N=C/c1cccc([N+](=O)[O-])c1)c1ccncc1 [IPK 000 041 47]	74.5	102	95.5	102	43.8	82.3	99.5	479.8	516.1	345.8	362.8	–	–	–	–	–	–	–	–
C/C(=N\NOCc1cc([N+](=O)[O-])cc([N+](=O)[O-])c1)c1ccccc1 [IPK 000 035 56]	9.1	18.8	89	83.3	41.5	39.6	65.6	247.1	313.1	524.3	266.0	–	–	–	–	–	–	–	–
